Experimental data reported in patent US11524966B1 (Valo Early Discovery, Inc., priority 2017, dated 2022).

Target: T1, USP28 (His-tagged USP28-FL-mammalian) (Homo sapiens, UniProt Q96RU2)
T1 construct: Expression of USP28 (1-1077)-TEV-6*His (pTT5 vector); made in house; host or cells: Expi293f cells (pTT5 vector)
T1 sequence (Q96RU2 1-1077): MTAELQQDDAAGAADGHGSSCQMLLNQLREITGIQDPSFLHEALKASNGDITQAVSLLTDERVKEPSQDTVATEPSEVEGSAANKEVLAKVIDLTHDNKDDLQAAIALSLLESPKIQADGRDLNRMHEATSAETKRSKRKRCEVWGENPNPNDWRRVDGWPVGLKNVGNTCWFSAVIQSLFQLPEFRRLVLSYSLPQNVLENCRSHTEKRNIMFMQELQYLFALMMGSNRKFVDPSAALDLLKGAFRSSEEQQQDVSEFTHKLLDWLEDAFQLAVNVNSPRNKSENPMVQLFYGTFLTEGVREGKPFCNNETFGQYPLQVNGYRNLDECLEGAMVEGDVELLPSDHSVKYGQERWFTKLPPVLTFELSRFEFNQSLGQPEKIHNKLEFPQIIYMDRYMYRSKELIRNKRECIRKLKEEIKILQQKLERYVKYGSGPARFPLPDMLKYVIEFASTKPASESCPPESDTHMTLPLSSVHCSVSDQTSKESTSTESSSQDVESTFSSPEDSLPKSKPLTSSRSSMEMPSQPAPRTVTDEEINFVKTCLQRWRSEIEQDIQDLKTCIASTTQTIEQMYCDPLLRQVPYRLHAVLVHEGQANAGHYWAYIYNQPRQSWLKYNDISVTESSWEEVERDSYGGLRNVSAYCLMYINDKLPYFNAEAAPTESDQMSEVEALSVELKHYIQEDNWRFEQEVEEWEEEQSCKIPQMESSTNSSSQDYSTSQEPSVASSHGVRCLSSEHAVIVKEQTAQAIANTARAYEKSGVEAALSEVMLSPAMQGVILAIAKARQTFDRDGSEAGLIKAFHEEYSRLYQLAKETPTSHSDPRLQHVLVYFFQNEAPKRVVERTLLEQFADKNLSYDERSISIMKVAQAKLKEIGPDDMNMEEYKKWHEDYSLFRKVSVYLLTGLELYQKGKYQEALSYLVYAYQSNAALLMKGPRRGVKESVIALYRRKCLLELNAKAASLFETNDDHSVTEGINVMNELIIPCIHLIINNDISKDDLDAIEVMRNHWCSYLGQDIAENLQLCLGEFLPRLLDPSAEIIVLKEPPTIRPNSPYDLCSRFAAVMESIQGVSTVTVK
Assay: Ubiquitin-Rhodamine 110 Assay for USP28 Activity, Example A-1(a)
Type: biochemical
Settings: Ubiquitin-Rhodamine 110 assay, Example A-1(a); read-out: USP28 A-1(a) IC50 range
Summary of the method: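 Full-length His-tagged USP28 (1-1077, Expi293F-expressed; […]) was preincubated 30 min with compound (25 μM–1.3 nM, 10-point 3-fold) in 20 mM Tris-HCl pH 8.0, 3 mM BME, 0.03% BGG, 0.01% Triton X-100. Ub-Rh110 (25 nM) was then added for 45 min at room temperature, stopped with citric acid, and read by fluorescence (485/535 nm).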

Structure (SMILES)	IC50 [µM]
Cc1ccc2c(N)c(C(=O)N[C@H]3COc4cc(N5CC6CCC[C@@]6(N)C5)ccc4C3)sc2n1 (stereo partly drawn) [Example 248, N-[(3R)-7-[(3aS)-3a-amino-octahydrocyclopenta[c]pyrrol-2-yl]-3,4-dihydro-2H-1-benzopyran-3-yl]-3-amino-6-methylthieno[2,3-b]pyridine-2-carboxamide]	0.001 to 0.05
Cc1ccc2c(N)c(C(=O)N[C@H]3COc4cc(N5CC6CCC[C@]6(N)C5)ccc4C3)sc2n1 (stereo partly drawn) [Example 249, N-[(3R)-7-[(3aR)-3a-amino-octahydrocyclopenta[c]pyrrol-2-yl]-3,4-dihydro-2H-1-benzopyran-3-yl]-3-amino-6-methylthieno[2,3-b]pyridine-2-carboxamide]	0.001 to 0.05
COC[C@@H]1CN(c2cc(F)c3c(c2)OC[C@H](NC(=O)c2sc4nc(C)ccc4c2N)C3)C[C@@H]1N [Example 250, 3-amino-N-[(3R)-7-[(3R,4R)-3-amino-4-(methoxymethyl)pyrrolidin-1-yl]-5-fluoro-3,4-dihydro-2H-1-benzopyran-3-yl]-6-methylthieno[2,3-b]pyridine-2-carboxamide]	0.001 to 0.05
COC[C@H]1CN(c2cc(F)c3c(c2)OC[C@H](NC(=O)c2sc4nc(C)ccc4c2N)C3)C[C@H]1N [Example 251, 3-amino-N-[(3R)-7-[(3S,4S)-3-amino-4-(methoxymethyl)pyrrolidin-1-yl]-5-fluoro-3,4-dihydro-2H-1-benzopyran-3-yl]-6-methylthieno[2,3-b]pyridine-2-carboxamide]	0.001 to 0.05
COC[C@@H]1CN(c2ccc3c(c2)CC[C@H](NC(=O)c2sc4nc(C)ccc4c2N)C3)C[C@@H]1N [Example 252, 3-amino-N-[(2S)-6-[(3R,4R)-3-amino-4-(methoxymethyl)pyrrolidin-1-yl]-1,2,3,4-tetrahydronaphthalen-2-yl]-6-methylthieno[2,3-b]pyridine-2-carboxamide]	0.05 to 0.2
COC[C@H]1CN(c2ccc3c(c2)CC[C@H](NC(=O)c2sc4nc(C)ccc4c2N)C3)C[C@H]1N [Example 253, 3-amino-N-[(2S)-6-[(3S,4S)-3-amino-4-(methoxymethyl)pyrrolidin-1-yl]-1,2,3,4-tetrahydronaphthalen-2-yl]-6-methylthieno[2,3-b]pyridine-2-carboxamide]	0.001 to 0.05
CCO[C@@H]1CN(c2ccc3c(n2)CC[C@H](NC(=O)c2sc4nc(C)ccc4c2N)C3)C[C@@H]1N [Example 254, 3-amino-N-[(6S)-2-[(3S,4R)-3-amino-4-ethoxypyrrolidin-1-yl]-5,6,7,8-tetrahydroquinolin-6-yl]-6-methylthieno[2,3-b]pyridine-2-carboxamide]	0.05 to 0.2
CCO[C@H]1CN(c2ccc3c(n2)CC[C@H](NC(=O)c2sc4nc(C)ccc4c2N)C3)C[C@H]1N [Example 255, 3-amino-N-[(6S)-2-[(3R,4S)-3-amino-4-ethoxypyrrolidin-1-yl]-5,6,7,8-tetrahydroquinolin-6-yl]-6-methylthieno[2,3-b]pyridine-2-carboxamide]	0.05 to 0.2
Cc1ccc2c(N)c(C(=O)N[C@H]3COc4cc(N5C[C@H](N)C(F)(F)C5)ccc4C3)sc2n1 [Example 256, 3-amino-N-[(3R)-7-[(4S)-4-amino-3,3-difluoropyrrolidin-1-yl]-3,4-dihydro-2H-1-benzopyran-3-yl]-6-methylthieno[2,3-b]pyridine-2-carboxamide]	0.001 to 0.05
Cc1ccc2c(N)c(C(=O)N[C@H]3COc4cc(N5C[C@@H](N)C(F)(F)C5)ccc4C3)sc2n1 [Example 257, 3-amino-N-[(3R)-7-[(4R)-4-amino-3,3-difluoropyrrolidin-1-yl]-3,4-dihydro-2H-1-benzopyran-3-yl]-6-methylthieno[2,3-b]pyridine-2-carboxamide]	0.001 to 0.05
Cc1ccc2c(N)c(C(=O)N[C@H]3COc4cc(N5C[C@H](N)C6(COC6)C5)ccc4C3)sc2n1 [Example 258, 3-amino-N-[(3R)-7-[(8R)-8-amino-2-oxa-6-azaspiro[3.4]octan-6-yl]-3,4-dihydro-2H-1-benzopyran-3-yl]-6-methylthieno[2,3-b]pyridine-2-carboxamide]	0.001 to 0.05
Cc1ccc2c(N)c(C(=O)N[C@H]3COc4cc(N5C[C@@H](N)C6(COC6)C5)ccc4C3)sc2n1 [Example 259, 3-amino-N-[(3R)-7-[(8S)-8-amino-2-oxa-6-azaspiro[3.4]octan-6-yl]-3,4-dihydro-2H-1-benzopyran-3-yl]-6-methylthieno[2,3-b]pyridine-2-carboxamide]	0.001 to 0.05
COC[C@@H]1C[C@@H](N)CN1c1ccc2c(c1)OC[C@H](NC(=O)c1sc3nc(C)ccc3c1N)C2 [Example 260, 3-amino-N-[(3R)-7-[(25,4R)-4-amino-2-(methoxymethyl)pyrrolidin-1-yl]-3,4-dihydro-2H-1-benzopyran-3-yl]-6-methylthieno[2,3-b]pyridine-2-carboxamide]	0.001 to 0.05
